Experimental data from patent US20150173370A1, “S[…] CONTROL FROM COMBINATIONS OF 2,4-D-CHOLINE, GLYPHOSATE, AND GLUFOSINATE” (Dow AgroSciences LLC, priority 2013, published 2015).
Where “and” joins values, the source holds several entries; their conditions need not be identical. Equal entries are not always repeated.

Key:
[1] = tested on: AAD12 Soybean (GLXMA); assay: Field trials, crop tolerance (% visual chlorosis); type: in vivo, Glycine max L. (soybean)
Experimental: Field trials were conducted under agricultural field conditions in multiple states in the United States, including but not limited to Arkansas, Iowa, Illinois, Indiana, Kansas, Minnesota, Mississippi, Missouri, New York, Tennessee and Wisconsin. Trials were established as RCB (randomized complete block) design, with 3-4 replicates per treatment, and plot sizes varying from 5-10 feet (ft) wide by 12-30 ft long. Treatments were applied with small plot backpack sprayers, using pressurized carbon dioxide (CO2) as propellant. Pressure varied from 17-52 pounds per square inch (psi), with spray tips typically of a Flat Fan type applying water diluent at 15 gallons per acre (GPA). Boom sizes varied from 5-11 ft in width. Treatments were applied to soybean, cotton, corn or fallow crop land. Weed sizes varied, but all treatments were applied as post-emergence treatments to weeds from 2 leaf to 2 tiller growth stages varying from 3 to 17 inches in height. The weed spectrum included, but was not limited to, Amaranthus palmeri S. Wats. (Palmer amaranth, AMAPA), Ambrosia trifida L. (giant ragweed, AMBTR), Conyza canadensis (L.) Cronq. (horseweed, ERICA) and Salsola tragus L. (Russian thistle, SASKR). […]
However, the experiments described herein were performed such that active ingredients A and B were combined and only the efficacy of the combination was determined. […]

[2] = tested on: AAD12 Soybean (GLXMA); assay: Field trials, crop tolerance (% visual necrosis); type: in vivo, Glycine max L. (soybean)
Experimental: Field trials were conducted under agricultural field conditions in multiple states in the United States, including but not limited to Arkansas, Iowa, Illinois, Indiana, Kansas, Minnesota, Mississippi, Missouri, New York, Tennessee and Wisconsin. Trials were established as RCB (randomized complete block) design, with 3-4 replicates per treatment, and plot sizes varying from 5-10 feet (ft) wide by 12-30 ft long. Treatments were applied with small plot backpack sprayers, using pressurized carbon dioxide (CO2) as propellant. Pressure varied from 17-52 pounds per square inch (psi), with spray tips typically of a Flat Fan type applying water diluent at 15 gallons per acre (GPA). Boom sizes varied from 5-11 ft in width. Treatments were applied to soybean, cotton, corn or fallow crop land. Weed sizes varied, but all treatments were applied as post-emergence treatments to weeds from 2 leaf to 2 tiller growth stages varying from 3 to 17 inches in height. The weed spectrum included, but was not limited to, Amaranthus palmeri S. Wats. (Palmer amaranth, AMAPA), Ambrosia trifida L. (giant ragweed, AMBTR), Conyza canadensis (L.) Cronq. (horseweed, ERICA) and Salsola tragus L. (Russian thistle, SASKR).
Glyphosate-, 2,4-D- and glufosinate-tolerant soybeans, corn or cotton comprising genes for tolerance for each herbicide as described above were used in all trials either as a breeding stack of one to three herbicide-tolerant events or as a molecular stack where all three herbicide tolerance traits were transformed into a single event.
The 2,4-D-choline salt plus glyphosate premix formulation was a 400 g ae/L SL containing 195 g ae/L 2,4-D-choline salt and 205 g ae/L glyphosate-dimethylammonium (DMA) salt. […] All treatments were mixed in water at appropriate formulated product rates to achieve the desired rates as shown based on a unit area of application (hectare). Treatments were rated at 1 to 28 days after application (DAA) as compared to the untreated control plants. The trial sites had naturally occurring populations of weeds. The treated plots and control plots were rated blind at various intervals after application.
Colby's equation was used to determine the herbicidal effects expected from the mixtures (Colby, S. R. Calculation of the synergistic and antagonistic response of herbicide combinations. Weeds 1967, 15, 20-22). A t-test (alpha=0.05) between Colby predictions and observed combinations was used to test for significant differences indicating synergy or antagonism using replicate data.
However, the experiments described herein were performed such that active ingredients A and B were combined and only the efficacy of the combination was determined. As such, Colby's equation simplifies to
Z=observed efficacy of a combination of active ingredient A (2,4-D-choline) and active ingredient B (glyphosate-DMA) at the same concentration as used in the mixture;

Structure (SMILES): CP(=O)(O)CCC(N)C(=O)O (stereo not shown) [Glufosinate-Ammonium, ammonium (3-amino-3-carboxypropyl)(methyl)phosphinate]
- Mean % Visual Chlorosis ([1]; 10 DAA, 1084 g ae/ha alone): 8.5% and 10.0%
- Mean % Visual Chlorosis ([1]; 14 DAA, 542 g ae/ha alone): 5.8%
- Mean % Visual Necrosis ([2]; 2 DAA, 1084 g ae/ha alone): 25.0%
- Mean % Visual Necrosis ([2]; 3 DAA, 542 g ae/ha alone): 0.0%
- Mean % Visual Necrosis ([2]; 3 DAA, 822 g ae/ha alone): 0.8%
- Mean % Visual Necrosis ([2]; 3 DAA, 1084 g ae/ha alone): 3.0% and 8.5% and 1.5% and 1.3%
- Mean % Visual Necrosis ([2]; 5 DAA, 542 g ae/ha alone): 2.8%
- Mean % Visual Necrosis ([2]; 7 DAA, 542 g ae/ha alone): 0.5% and 0.3%
- Mean % Visual Necrosis ([2]; 7 DAA, 822 g ae/ha alone): 0.8% and 0.0% and 10.0% and 1.0% and 1.3%
- Mean % Visual Necrosis ([2]; 7 DAA, 1084 g ae/ha alone): 3.3% and 1.3% and 10.0% and 2.0% and 2.3%
- Mean % Visual Necrosis ([2]; 8 DAA, 822 g ae/ha alone): 7.5%
- Mean % Visual Necrosis ([2]; 8 DAA, 1084 g ae/ha alone): 10.0% and 12.5% and 6.5%
- Mean % Visual Necrosis ([2]; 9 DAA, 822 g ae/ha alone): 6.0%
- Mean % Visual Necrosis ([2]; 10 DAA, 1084 g ae/ha alone): 2.3%
- Mean % Visual Necrosis ([2]; 14 DAA, 822 g ae/ha alone): 0.0% and 1.0%
- Mean % Visual Necrosis ([2]; 14 DAA, 1084 g ae/ha alone): 5.0% and 2.0%
- Mean % Visual Necrosis ([2]; 16 DAA, 542 g ae/ha alone): 3.0%
- Mean % Visual Necrosis ([2]; 16 DAA, 822 g ae/ha alone): 5.0%
- Mean % Visual Necrosis ([2]; 16 DAA, 1084 g ae/ha alone): 1.8%
